Reference: article PMC8460535, “Novel serotonin 5-HT2A receptor antagonists derived from 4-phenylcyclohexane-5-spiro-and 5-methyl-5-phenyl-hydantoin, for use as potential antiplatelet agents” (Pharmacological Reports, 2021)
Where “and” joins values, the source holds several entries; their conditions need not be identical. Equal entries are not always repeated. Where two headings read alike, the source gives them in different places.

Experiments:
human 5-HT2A receptor [1] = target: T1, human 5-HT2A receptor (Homo sapiens, UniProt P28223); test: 5-HT2A receptor radioligand binding assay ([3H]-ketanserin, CHO-K1 membranes); settings: read-out: Ki [nM] ± SEM
T1 construct: purchased PerkinElmer; host or cells: CHO-K1 cells, stably transfected
T1 sequence (P28223 whole entry): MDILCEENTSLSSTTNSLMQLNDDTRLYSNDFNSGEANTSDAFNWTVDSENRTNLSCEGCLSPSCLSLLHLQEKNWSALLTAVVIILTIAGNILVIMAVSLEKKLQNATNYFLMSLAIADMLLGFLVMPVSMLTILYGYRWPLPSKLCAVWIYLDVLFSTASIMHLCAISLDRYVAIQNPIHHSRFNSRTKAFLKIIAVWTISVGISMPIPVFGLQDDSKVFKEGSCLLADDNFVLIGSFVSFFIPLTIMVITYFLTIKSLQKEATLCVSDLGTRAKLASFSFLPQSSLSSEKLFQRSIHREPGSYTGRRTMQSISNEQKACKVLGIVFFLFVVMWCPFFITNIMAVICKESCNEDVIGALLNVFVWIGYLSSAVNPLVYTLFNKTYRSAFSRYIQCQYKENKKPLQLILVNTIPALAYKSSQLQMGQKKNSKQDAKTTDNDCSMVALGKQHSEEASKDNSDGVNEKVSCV
Method: Stock solutions of tested compounds (10 mM) were prepared in DMSO. […] Each compound was tested in eight concentrations from 10^–5 to 10^–12 M (final concentration).
Radioligand binding was performed using membranes from CHO-K1 cells stably transfected with the human 5-HT2A receptor (PerkinElmer). All assays were carried out in duplicates. Data were fitted to a one-site curve-fitting equation with Prism 6 (GraphPad Software) and Ki values were estimated from the Cheng − Prusoff equation. The full description of this assay is in Supplementary material.
Mianserin (10 μM) was used to define nonspecific binding. […] The reaction was terminated by rapid filtration through GF/B filter mate presoaked with 0.5% polyethyleneimine for 30 minutes. Ten rapid washes with 200 µl 50 mM Tris buffer (4°C, pH 7.4) were performed using automated harvester system Harvester-96 MACH III FM (Tomtec). […] Radioactivity was counted in MicroBeta2 scintillation counter (PerkinElmer).

[2] = target: T2, 5-HT2A receptors in rat aorta (Rattus norvegicus, UniProt P14842); test: Functional bioassay at 5-HT2A receptors in isolated rat aorta (5-HT-induced contraction); assay type: cell-based; settings: single antagonist concentration, 30 min incubation, read-out: pKB ± SEM a (converted)
T2 construct: Isolated rat aorta was used to determine the antagonistic activity of studied compounds for 5HT2A-receptors; from tissue; host or cells: aortic rings of male Wistar rats, denuded of the endothelium
T2 sequence (P14842 whole entry): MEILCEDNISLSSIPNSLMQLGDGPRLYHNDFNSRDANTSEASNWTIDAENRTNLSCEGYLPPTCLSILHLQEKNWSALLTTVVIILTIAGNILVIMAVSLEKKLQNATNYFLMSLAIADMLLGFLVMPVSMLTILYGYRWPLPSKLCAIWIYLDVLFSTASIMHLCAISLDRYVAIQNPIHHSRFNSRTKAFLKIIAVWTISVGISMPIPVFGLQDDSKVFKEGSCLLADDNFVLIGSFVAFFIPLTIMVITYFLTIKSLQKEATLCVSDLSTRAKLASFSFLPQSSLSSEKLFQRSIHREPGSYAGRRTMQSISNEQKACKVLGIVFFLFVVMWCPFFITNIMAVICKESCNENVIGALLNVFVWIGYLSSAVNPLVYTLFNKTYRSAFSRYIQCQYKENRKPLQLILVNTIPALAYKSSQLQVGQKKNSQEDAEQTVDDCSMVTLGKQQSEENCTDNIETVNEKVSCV
Method: Isolated rat aorta was used to determine the antagonistic activity of studied compounds for 5HT2A-receptors. The male Wistar rats weighting 200–350 g were anesthetized with thiopental sodium (75 mg/kg i.p.) and the aorta was dissected and placed in a Krebs–Henseleit solution (NaCl 118 mM, KCl 4.7 mM, CaCl2 2.25 mM, MgSO4 1.64 mM, KH2PO4 1.18 mM, NaHCO3 24.88 mM, glucose 10 mM, C3H3O3Na 2.2 mM, EDTA 0.05 mM), denuded of the endothelium, cleaned of surrounding fat tissues and cut into 4-mm-long rings. The aortic rings were incubated in 30 ml chambers filled with a Krebs–Henseleit solution at 37 °C and pH 7.4 with constant oxygenation (O2/CO2, 19:1). Two stainless steel stirrups were inserted through the lumen of each aortic segment: one stirrup was attached to the bottom of the chamber and the other to an isometric FDT10-A force–displacement transducer (BIOPAC Systems, Inc., COMMAT Ltd., Turkey). The aortic rings were stretched and maintained at optimal tension of 2 g and allowed to equilibrate for 2 h.
After the equilibration period, the aortic rings were contracted to maximal tension with KCl (60 mM). The depolarizing solution KCl (60 mM) was obtained by equimolar substitution of […]. Then the cumulative concentration–response curves to 5-HT were determined in the absence and presence of antagonist. Tissues were incubated with antagonists for 30 min.
Concentration–response curves were analyzed using GraphPad Prism 6.0 software (GraphPad Software Inc., San Diego, CA, USA). […] Data are the mean ± SEM of three separate experiments. The affinity was estimated with the equation pKB = log(concentration ratio–1)-log(molar antagonist concentration), where the concentration ratio is the ratio of equi-effective agonist concentrations in the absence and in the presence of the antagonist.

human 5-HT2A receptor [3] = target: T1, human 5-HT2A receptor; test: Aequorin luminescence-based intracellular calcium assay in CHO cells expressing human 5-HT2A; assay type: cell-based; settings: cells expressing human 5-HT2A receptors, antagonist mode vs α-methylserotonin 30 nM; read-out: pKB ± SEM b (converted)
Method: Tested and reference compounds were dissolved in DMSO at a concentration of 10^–2 M. Serial dilutions were prepared in 96-well microplate in assay buffer and eight to ten concentrations were tested.
A cellular aequorin-based functional assay was performed with recombinant Chinese hamster ovary cells expressing mitochondrially targeted aequorin, human G-protein-coupled receptors, and the promiscuous G protein α16 for 5-HT2A. The full description of this assay is in Supplementary materials.
A cellular aequorin-based functional assay was performed with recombinant Chinese hamster ovary cells expressing mitochondrially targeted aequorin, human G-protein-coupled receptors and the promiscuous G protein α16 for 5-HT2A. After thawing, cells were transferred to assay buffer (Dulbecco's Modified Eagle Medium/HAM’s F12 with 0.1% protease free bovine serum albumin) and centrifuged. The cell pellet was resuspended in assay buffer and coelenterazine h was added at final concentrations of 5 μM. The cells suspension was incubated at 16°C, protected from light with constant agitation for 16 h and then diluted with assay buffer to the concentration of 120,000 cells/ml. After 1 h of incubation, 50 μl of the cells suspension was dispensed using automatic injectors built into the radiometric and luminescence plate counter MicroBeta2 LumiJET (PerkinElmer, USA) into white opaque 96-well microplates preloaded with test compounds. Immediate light emission generated following calcium mobilization was recorded for 30 s. In antagonist mode, after 30 min of incubation the reference agonist was added to the above assay mix and light emission was recorded again. Final concentration of the reference agonist was equal to EC80 of α-methylserotonin (30 nM).

[4] = test system: whole rat blood aggregation induced by 5-HT and collagen; test: In vitro whole rat blood aggregation induced by 5-HT and sub-threshold collagen; assay type: cell-based; settings: 5-HT 30 μM and collagen 0.8 μg/ml, read-out: b (5-HT + collagen) IC50
Method: (§1) In vitro aggregation assays were performed using freshly drawn whole rat blood with a Multiplate platelet function analyzer (Roche Diagnostic), the five-channel aggregometer based on measurements of electric impedance. Blood was collected from carotid arteries with a hirudin blood tube (Roche Diagnostic). 300 μl of hirudin anticoagulated blood was mixed with 300 μl prewarmed isotonic saline solution containing studied compound or vehicle (deionized water or DMSO 0.1%) and preincubated for 3 min at 37 °C with continuous stirring. Aggregation was induced by adding collagen (Hyphen-Biomed, France) (final concentration 1.6 µg/ml), 5-HT (30 µM) and sub-threshold concentration of collagen (0.8 µg/ml), 5-HT (6 µM) and sub-threshold concentration of ADP (ADP test, Roche Diagnostic), (1.6 µM). The aggregation process was recorded for 6 min. Ketanserin (ketanserin ( +) tartrate salt, Sigma-Aldrich, Germany), sarpogrelate (sarpogrelate hydrochloride, Sigma-Aldrich, Germany), and aspirin (Tocris, UK) were used as reference compounds. The Multiplate software analyzed the area under the curve (AUC) of the clotting process of each measurement and calculated the mean values. Each concentration of studied compounds was tested at least three times. The exact sample size (n value) is presented on Figs. 2–4. Concentration-inhibition curves were constructed and analyzed by non-linear curve fitting using GraphPad Prism 6.0 (GraphPad Software Inc., San Diego, CA, USA).

[5] = test system: whole rat blood aggregation induced by 5-HT and ADP; test: In vitro whole rat blood aggregation induced by 5-HT and sub-threshold ADP; assay type: cell-based; settings: for IC50: 5-HT 6 μM and ADP 1.6 μM, na = not active, read-out: c (5-HT + ADP) IC50
Method: as §1

[6] = test system: whole rat blood aggregation induced by collagen; test: In vitro whole rat blood aggregation induced by collagen (Multiplate); assay type: cell-based; settings: collagen 1.6 μg/ml, na = not active
Method: as §1

5-HT2A receptor = settings: cited from earlier work
[7] = test system: whole rat blood aggregation induced by 5-HT and ADP; parameters: method as in PMID 29111111; settings: 5-HT 6 μM and ADP 1.6 μM, already published, read-out: c (5-HT + ADP) IC50; cited from earlier work
[8] = literature values, no reference given, read-out: 5-HT2A: Ki of conventional antagonists

Compound | melting point | Ki (human 5-HT2A receptor [1]) | Kb [2] | Kb (human 5-HT2A receptor [3]) | IC50 [4] | IC50 [5] | further results
O=C(c1ccc(F)cc1)N1CCN(CCN2C(=O)NC3(CCC(c4ccccc4)CC3)C2=O)CC1 (stereo not shown) [Compound 7, 3-(2-(4-(4-Fluorobenzoyl)piperazin-1-yl)ethyl)-8-phenyl-1,3-diazaspiro[4.5]decane-2,4-dione] | 224 to 226 °C |  |  |  |  |  | 
CC(=O)Oc1ccccc1C(=O)O [Aspirin] |  |  |  |  |  |  | IC50 [6]: 14.5 ± 1.1 µM
O=S1(=O)c2cccc3cccc(c23)N1CCCN1CCN(c2ccc(F)cc2)CC1 [fananserin, reference compound] |  |  |  |  |  |  | Ki (5-HT2A receptor; [8]): 0.00037 µM
O=C(c1ccc(F)cc1)C1CCN(CCn2c(=O)[nH]c3ccccc3c2=O)CC1 [Ketanserin, reference compound] |  |  |  |  | 1.3 µM |  | IC50 [6]: 32.1 ± 3 µM; Ki (5-HT2A receptor; [8]): 0.002 µM; IC50 [7]: 9.7 ± 2.1 µM
O=C1NC2(CCC(c3ccccc3)CC2)C(=O)N1CCN1CCN(C(c2ccccc2)c2ccccc2)CC1 (stereo not shown) [Compound 8, 3-(2-(4-Benzhydrylpiperazin-1-yl)ethyl)-8-phenyl-1,3-diazaspiro[4.5]decane-2,4-dione] | 243 to 245 °C |  |  |  |  |  | 
CC1(c2ccccc2)NC(=O)N(CCCN2CCN(c3ccccc3)CC2)C1=O (stereo not shown) [compound B] |  |  |  |  |  |  | Ki (5-HT2A receptor; 5-HT2A receptors, previous studies, read-out: Ki (5-HT2A) of earlier hydantoin leads): 0.069 µM

Now from value to compound, other results behind:

melting point | Ki (human 5-HT2A receptor [1]) | Kb [2] | Kb (human 5-HT2A receptor [3]) | IC50 [4] | IC50 [5] | Compound | further results
 | 48 ± 4.9 nM | 0.11 µM | 9.29 µM | 127 ± 32.7 µM | 124 ± 36.2 µM | CC1(c2ccccc2)NC(=O)N(CCCN2CCN(c3ccc(F)cc3)CC2)C1=O (stereo not shown) [Compound 5, 3-(3-(4-(4-Fluorophenyl)piperazin-1-yl)propyl)-5-methyl-5-phenylimidazolidine-2,4-dione] | 
 | 21 ± 1.7 nM | 0.0372 µM | 0.175 µM | 91.3 ± 7.1 µM | 140 ± 44.6 µM | O=C1NC2(CCC(c3ccccc3)CC2)C(=O)N1CCCN1CCN(c2ccc(F)cc2)CC1 (stereo not shown) [Compound 11, 3-(3-(4-(4-Fluorophenyl)piperazin-1-yl)propyl)-8-phenyl-1,3-diazaspiro[4.5]decane-2,4-dione] | 
 | 297 ± 19.9 nM | 0.501 µM |  | 94.3 ± 53.5 µM | 119 ± 32.1 µM | O=C1NC2(CCC(c3ccccc3)CC2)C(=O)N1CCCN1CCN(c2cccc(F)c2)CC1 (stereo not shown) [Compound 10, 3-(3-(4-(3-Fluorophenyl)piperazin-1-yl)propyl)-8-phenyl-1,3-diazaspiro[4.5]decane-2,4-dione] | 
 | 516 ± 52 nM | 0.216 µM | ~0.175 µM and 0.175 µM | 17.4 ± 10.9 µM | 37.9 ± 6.5 µM | CC1(c2ccccc2)NC(=O)N(CCCN2CCN(c3ccccc3F)CC2)C1=O (stereo not shown) [Compound 3, 3-(3-(4-(2-Fluorophenyl)piperazin-1-yl)propyl)-5-methyl-5-phenylimidazolidine-2,4-dione] | 
203 to 205 °C | 2580 ± 302 nM |  |  |  |  | O=C(c1ccc(F)cc1)N1CCN(CCCN2C(=O)NC3(CCC(c4ccccc4)CC3)C2=O)CC1 (stereo not shown) [Compound 12, 3-(3-(4-(4-Fluorobenzoyl)piperazin-1-yl)propyl)-8-phenyl-1,3-diazaspiro[4.5]decane-2,4-dione] | 
72 to 74 °C |  |  |  |  |  | CC1(c2ccccc2)NC(=O)N(CCCN2CCN(C(=O)c3ccc(F)cc3)CC2)C1=O (stereo not shown) [Compound 6, 3-(3-(4-(4-Fluorobenzoyl)piperazin-1-yl)propyl)-5-methyl-5-phenylimidazolidine-2,4-dione] | 
 | 340 ± 57 nM | 0.44 µM | 9.23 µM | 153 ± 26.4 µM | 83.1 ± 8.1 µM | CC1(c2ccccc2)NC(=O)N(CCCN2CCN(c3cccc(F)c3)CC2)C1=O (stereo not shown) [Compound 4, 3-(3-(4-(3-Fluorophenyl)piperazin-1-yl)propyl)-5-methyl-5-phenylimidazolidine-2,4-dione] | 
 | 220 ± 19.6 nM | 0.0959 µM | 1.99 µM | 139 ± 16.1 µM |  | O=C1NC2(CCC(c3ccccc3)CC2)C(=O)N1CCCN1CCN(c2ccccc2F)CC1 (stereo not shown) [Compound 9, 3-(3-(4-(2-Fluorophenyl)piperazin-1-yl)propyl)-8-phenyl-1,3-diazaspiro[4.5]decane-2,4-dione] | 
117 to 119 °C |  |  |  |  |  | CC1(c2ccccc2)NC(=O)N(CCN2CCN(C(=O)c3ccc(F)cc3)CC2)C1=O (stereo not shown) [Compound 1, 3-(2-(4-(4-Fluorobenzoyl)piperazin-1-yl)ethyl)-5-methyl-5-phenylimidazolidine-2,4-dione] | 
 | 450 ± 43.9 nM | 0.69 µM | 1.97 µM | 140 ± 18.9 µM |  | CC1(c2ccccc2)NC(=O)N(CCN2CCN(C(c3ccccc3)c3ccccc3)CC2)C1=O (stereo not shown) [Compound 2, 3-(2-(4-Benzhydrylpiperazin-1-yl)ethyl)-5-methyl-5-phenylimidazolidine-2,4-dione] | inhibitory effect on ADP- and 5-HT-induced blood aggregation ([5]; at a concentration of 200 μM): did not exhibit any significant inhibitory effect
